One molecule from US20150320723A1, “Use of Small Molecule Unfolder Protein Response Modulators to Treat Tumors With Active Sonic Hedgehog (SSH) Signaling Due To Smoothened (SMO) Mutation” (ST. JUDE CHILDREN'S RESEARCH HOSPITAL, priority 2013, published 2015) can be followed below.

One test relates to C318A mSmo. The test can be described thus: Thapsigargin sensitivity analysis: mSmo protein stability in NIH3T3 cells, western blot of whole-cell lysates. It counts as cell-based, mouse. To be noted: 1 uM thapsigargin, 4 hours prior to lysis, vs vehicle. The procedure:
(§1) Next, it was decided to determine whether the effects observed following thermal ER stress induction could be recapitulated by an ER stress modulator that is specific to the UPR. To this end, Smo-expressing cells were treated with the potent ER stress inducing compound thapsigargin. Wild type, C318A or M2 mSmo proteins was expressed in NIH3T3 cells, and treated with vehicle or thapsigargin for 4 hours prior to lysis (FIG. 6A). […] The exact mechanism by which gli1 expression is increased in the wild type mSmo background in response to thapsigargin was not known.
(§2) For protein stability analysis in mammalian cells, ˜1×10^6NIH3T3 cells were transfected with 2 ug of wild type or mutant pcDNA3.1-amino expression vector (Carroll et al., 2012 [31]). For temperature sensitivity analysis, transfected cells were maintained at 37° C. for ˜44 hours, and then shifted to 40° C. for 4 hours prior to lysis. Whole-cell lysates were prepared in modified RIPA buffer (50 mM Tris-HCl, pH 7.4, 150 mM NaCl, 0.25% deoxycholic acid, 1% NP-40, 1 mM EDTA, 0.1% SDS, 0.5 mM DTT, and 1× PIC (Roche)) by rocking for 30 minutes at 4° C. as described (Nachtergaele et al., 2012 [62]). Cell extracts were cleared by centrifuging at 16,000×g at 4° C. for 45 minutes. Supernatants were collected and analyzed by SDS-Page and western blot using anti-GADD153/CHOP (B-3, SCBT) anti-Smo (E5, SCBT) and anti-tubulin (Cell Signaling) antibodies. For thapsigargin sensitivity analysis, NIH3T3 cells expressing wild type or mutant mSmo protein at 37° C. were treated with vehicle (ethanol) or 1 uM thapsigargin (Sigma) in DMEM containing 0.5% fetal calf serum for 4 hrs prior to lysis. Whole-cell lysates were prepared in modified RIPA buffer and analyzed as above.

For a further test, the system named is M2 mSmo (mSmoM2). Described as above. It counts as cell-based, mouse. To be noted: 1 uM thapsigargin, 4 hours prior to lysis, vs vehicle. How it is done:
as §1, §2

Another test has as its system wild type mSmo. Described as above. It counts as cell-based, mouse. To be noted: 1 uM thapsigargin, 4 hours prior to lysis, vs vehicle. The procedure:
as §1, §2

Test [1] deals with mSmoM2-induced gli1 expression. The test can be described thus: qPCR analysis of endogenous gli1 induction in NIH3T3 cells expressing mSmoM2. It counts as cell-based, mouse. How it is done:
as §1
To assess gli1 and smo expression, NIH3T3 cells were plated as above and transfected using Fugene 6 (Promega). […] RNA was extracted using RNeasy kit (Qiagen) ˜16 hours after media exchange. cDNA was synthesized from 5 ug of RNA using SuperScript III first strand synthesis system (Invitrogen). qPCR reactions were performed on cDNA diluted 1:10 using SYBR Green PCR master mix (Applied Biosystems). GAPDH was used as a reference gene and results were analyzed using a standard 2^−ααCt method (Livak & Schmittgen, 2001 [63]). The following gene specific primers were used: […]
(§3) qPCR analysis was performed three times in triplicate, and all data pooled. Error bars indicate standard error of the mean.

Test [2] relates to gli1 expression in cells expressing wild type mSmo. The test can be described thus: qPCR analysis of gli1 expression in NIH3T3 cells expressing wild type mSmo. It counts as cell-based, mouse. To be noted: wild type mSmo-expressing NIH3T3 cells with thapsigargin; normalized to GAPDH. The procedure: as §1
(§4) To assess gli1 and smo expression, NIH3T3 cells were plated as above and transfected using Fugene 6 (Promega). Approximately 30 hours post transfection, culture media was replaced with complete media containing 250 nM Thapsigargin or vehicle (ethanol) control. RNA was extracted using RNeasy kit (Qiagen) ˜16 hours after media exchange. cDNA was synthesized from 5 ug of RNA using SuperScript III first strand synthesis system (Invitrogen). qPCR reactions were performed on cDNA diluted 1:10 using SYBR Green PCR master mix (Applied Biosystems). GAPDH was used as a reference gene and results were analyzed using a standard 2^−ααCt method (Livak & Schmittgen, 2001 [63]). The following gene specific primers were used: […]
qPCR analysis was performed three times in triplicate, and all data pooled. […]
(In qPCR the cycle at which signal appears reflects the starting amount.)

For a further test, the system named is smo expression. The test can be described thus: qPCR analysis of smo expression in NIH3T3 cells expressing wild type or M2 mSmo. It counts as cell-based, mouse. To be noted: thapsigargin treatment. How it is done:
as §4, §3

Test [3] has as its system GFP transgene under control of MS1096-Gal4. The test can be described thus: Thapsigargin feeding of MS1096>GFP larvae: transgene expression in wing imaginal discs. To be noted: larvae fed thapsigargin (1 uM in food) at 22° C. It counts as in vivo, Drosophila. How it is done:
(§5) To confirm that thapsigargin treatment of transgenic Drosophila would not nonspecifically alter UAS/GAL4 transgene expression, the effect of feeding thapsigargin or vehicle control to larvae expressing a GFP transgene under control of the MS1096-Gal4 wing pouch driver was first tested (FIG. 8A). […] Next either wild type or C320A Myc-Smo proteins were expressed at 22° C. under control of MS1096-Gal4, and grew larvae on food containing either vehicle or thapsigargin (FIGS. 8C-D). Consistent with the in vitro results, wings from wild type Myc-Smo expressing flies were unaffected by thapsigargin treatment (FIGS. 8C-C′ compared to B, control).
(§6) For drug treatment, 1 to 24 hour MS1096>myc-smoC320A embryos were collected and transferred to vials containing 2 mL Jazz agarose containing vehicle (ethanol) or thapsigargin (Sigma) at a final concentration of 1 uM. Drug feeding was performed across two separate crosses and multiple progeny analyzed. Representative wings from the resulting adult flies were mounted and imaged as above.

The test system of test [4] is wings from wild type Myc-Smo expressing flies. The test can be described thus: Thapsigargin feeding of larvae: adult wing phenotype, wild type Myc-Smo. It counts as in vivo, Drosophila. To be noted: larvae grown at 22° C. on food containing thapsigargin (1 uM) vs vehicle. The procedure:
as §5
(§7) Fly stocks were maintained at 18° C. on Jazz mix agarose (Fisher). Crosses were performed at 22° C. or 29° C. as indicated. UAS-myc-smo, UAS-myc-smoC320A and UAS-mycsmoC339A (Carroll et al., 2012 [31]) were expressed under control of MS1096-Gal4. UAS-Xbp1-GFP (Ryon et al., 2007 [44]) was expressed under control of sgs3-Gal4. […] For wing analyses, crosses were performed at least twice, and multiple progeny analyzed. […]
(§8) For drug treatment, 1 to 24 hour MS1096>myc-smoC320A embryos were collected and transferred to vials containing 2 mL Jazz agarose containing vehicle (ethanol) or thapsigargin (Sigma) at a final concentration of 1 uM. Drug feeding was performed across two separate crosses and multiple progeny analyzed. […]

In test [5] the test system is Myc-SmoC320A-induced Hh gain-of-function wing phenotypes. The test can be described thus: Thapsigargin feeding of larvae: adult wing phenotype, Myc-SmoC320A. To be noted: larvae grown at 22° C. on food containing thapsigargin (1 uM) vs vehicle. It counts as in vivo, Drosophila. The procedure:
as §5, §7, §8

The next test deals with Myc-SmoC320A protein. Description: Immunofluorescence of wing imaginal discs from drug-fed larvae: Myc-SmoC320A protein. To be noted: discs from thapsigargin-fed larvae at 22° C. vs vehicle. It counts as in vivo, Drosophila. How it is done:
as §5, §6
(§9) pAc-myc-smo constructs were expressed in Schneider 2 (S2) cells as described (Carroll et al., 2012 [31]). […] For all indirect immunofluorescence, the indicated primary antibodies were detected using Alexa Fluor (Invitrogen) secondary antibodies conjugated to 488 or 555 fluorophores. […]

In test [6] the test system is C320A-mediated ectopic stabilization of Ci. The test can be described thus: Immunofluorescence of wing imaginal discs from drug-fed larvae: full-length Ci. It counts as in vivo, Drosophila. To be noted: discs from thapsigargin-fed larvae at 22° C. vs vehicle. How it is done:
as §5, §6, §9

The structures appear in SMILES notation. Entries after “also recorded” stand apart in the source; their conditions may differ.

`C/C=C(/C)C(=O)O[C@H]1C(C)=C2[C@H]([C@@H]1OC(=O)CCCCCCC)[C@@](C)(OC(C)=O)C[C@H](OC(=O)CCC)[C@@]1(O)[C@H]2OC(=O)[C@@]1(C)O` [thapsigargin]: the “C318A mSmo protein stability” value with C318A mSmo is given as “destabilized”. Further, the “M2 mSmo protein stability” value in the test with M2 mSmo (mSmoM2) is on record as “destabilized”. Moreover, the “wild type mSmo protein stability” value in the test with wild type mSmo was “not significantly affected”. The “reduction of mSmoM2-mediated gli1 induction” value in test [1] (NIH3T3 cells, 250 nM thapsigargin ~16 hours (method), vehicle gives approx. 40-fold) was “approximately 50%”. Moreover, the “mSmoM2-induced gli1 expression (qualitative)” value in [1] (NIH3T3 cells, over-night treatment with 200 nM thapsigargin (FIG. 6B legend)) is given as “specific attenuation”. In addition, the “gli1 expression, fold over the mSmoWT baseline” value in [1] (mSmoM2-expressing NIH3T3 cells with thapsigargin, normalized to GAPDH) is ~18 fold. Also, the “gli1 expression, fold over baseline” value in test [2] is ~4 fold. The “smo expression (wild type and M2 transcripts)” value with smo expression was “modest increase; also recorded: increased modestly”. In test [3], the GFP transgene expression entry is recorded as “unaffected”. Also, the “wing phenotype of wild type Myc-Smo expressing flies” value in test [4] is “unaffected”; in test [4] (listed as Thapsigargin), “did not affect”. Also, the “Myc-SmoC320A-induced Hh gain-of-function wing phenotype” value in test [5] is “significantly attenuated; also recorded: significantly reduced”. Moreover, the “Myc-SmoC320A protein level in wing imaginal discs” value in the test on Myc-SmoC320A protein was “significantly reduced; also recorded: significant reduction”. Further, the “C320A-mediated ectopic stabilization of Ci in wing imaginal discs” value in [6] was “reduced Ci stabilization; also recorded: dramatically reduced”.
